pIC50: −log10 of the molar value.
Key:
whole human blood = test: Anti-CD3/anti-CD28-induced IL-2 Secretion in Whole Human Blood; assay type: cell-based; conditions: 48 h, IL-2 by ELISA, threshold 5 μM
Experimental: Anti-CD3/anti-CD28-induced IL-2Secretion in Whole Human Blood
The purpose of this assay is to test the potency of T cell receptor (TCR; CD3) and CD28 signaling pathway inhibitors in whole human blood. Anti-CD3 antibody (10 ug/mL; R&D Systems) is precoated on the wells of 96-well plates. Compounds are added in T-cell dilution media (Iscoves modified DMEM), supplemented with 0.1% human serum albumin, 5 uM Beta-mercaptoethanol, and 1×Pen/Strep/Glu. Compounds are tested in triplicate. 100 μL of whole human blood (collected in heparinized tubes) is added to each well and the plates are incubated for 30 minutes at 37° C., 5% CO2. Anti-CD28 antibody (2 ug/mL; R&D Systems) is diluted in T-cell dilution media and is added to the wells. The mixture is incubated for 48 h at 37° C., 5% CO2. The cells are then pelleted, and the supernatant collected and IL-2 production determined by ELISA (R&D Systems).

human T cells = test: Anti-CD3/anti-CD28-induced T cell IL-2 Secretion and Proliferation Assay; assay type: cell-based; conditions: list printed after the T cell IL-2 secretion/proliferation method, threshold 500 μM

Compound | pIC50 (whole human blood) | pIC50 (human T cells)
CCN1CC2CC1CN2c1nc(-c2ccnc(N[C@@H](C)c3ccccc3)c2)nc2ccccc12 (stereo partly drawn) [(S)-{4-[4-(5-Ethyl-(1S,4S)-2,5-diaza-bicyclo[2.2.1]hept-2-yl)-quinazolin-2-yl]-pyridin-2-yl}-(1-phenyl-ethyl)-amine] | > 5.30 | 
CC(C)N1CC2CC1CN2c1nc(-c2ccnc(N[C@@H](C)c3ccccc3)c2)nc2ccccc12 (stereo partly drawn) [(S)-{4-[4-(5-Isopropyl-(1S,4S)-2,5-diaza-bicyclo[2.2.1]hept-2-yl)-quinazolin-2-yl]-pyridin-2-yl}-(1-phenyl-ethyl)-amine] |  | > 3.30
C[C@H](Nc1cc(-c2nc(N3CC4CC3CN4C)c3ccccc3n2)ccn1)c1ccccc1 (stereo partly drawn) [(S)-{4-[4-(5-Methyl-(1S,4S)-2,5-diaza-bicyclo[2.2.1]hept-2-yl)-quinazolin-2-yl]-pyridin-2-yl}-(1-phenyl-ethyl)-amine] |  | > 3.30
Fc1ccc2c(N3CC4CC3CN4)nn(-c3ccnc(NCc4ccccc4)c3)c2c1 [Benzyl-{4-[3-((1S,4S)-2,5-diaza-bicyclo[2.2.1]hept-2-yl)-6-fluoro-indazol-1-yl]-pyridin-2-yl}-amine] | > 5.30 | > 3.30
C[C@H](Nc1cc(-c2cc3nccn3c(N3C[C@@H]4C[C@H]3CN4)n2)ccn1)c1ccccc1 [Example 3, (S)-{4-[5-((1S,4S)-2,5-Diaza-bicyclo[2.2.1]hept-2-yl)-imidazo[1,2-c]pyrimidin-7-yl]-pyridin-2-yl}-(1-phenyl-ethyl)-amine] | > 5.30 | 
CC(C)N1C[C@@H]2C[C@H]1CN2c1nc(-c2ccnc(N[C@@H](C)c3ccccc3)c2)cc2nccn12 [Example 4, (S)-{4-[5-(5-Isopropyl-(1S,4S)-2,5-diaza-bicyclo[2.2.1]hept-2-yl)-imidazo[1,2-c]pyrimidin-7-yl]-pyridin-2-yl}-(1-phenyl-ethyl)-amine] | > 5.30 | > 3.30
CCN1C[C@@H]2C[C@H]1CN2c1nc(-c2ccnc(N[C@@H](C)c3ccccc3)c2)cc2nccn12 [Example 5, (S)-{4-[5-(5-Ethyl-(1S,4S)-2,5-diaza-bicyclo[2.2.1]hept-2-yl)-imidazo[1,2-c]pyrimidin-7-yl]-pyridin-2-yl}-(1-phenyl-ethyl)-amine] | > 5.30 | 
C[C@H](Nc1cc(-n2nc(N3C[C@@H]4C[C@H]3CN4)c3ccccc32)ccn1)c1ccccc1F [Example 24, (S)-{4-[3-((1S,4S)-2,5-Diaza-bicyclo[2.2.1]hept-2-yl)-indazol-1-yl]-pyridin-2-yl}-[1-(2-fluoro-phenyl)-ethyl]-amine] | > 5.30 | 
C[C@H](Nc1cc(-n2nc(N3C[C@@H]4C[C@H]3CN4)c3ccccc32)ccn1)c1ccccc1 [Example 43, (S)-{4-[3-((1s, 4S)-2,5-Diaza-bicyclo[2.2.1]hept-2-yl)-indazol-1-yl]-pyridin-2-yl}-(1-phenyl-ethyl)-amine] |  | > 3.30
CC(C)N1C[C@@H]2C[C@H]1CN2c1nn(-c2ccnc(N[C@@H](C)c3ccccc3)c2)c2ccccc12 [Example 44, (S)-{4-[3-(5-Isopropyl-(1S,4S)-2,5-diaza-bicyclo[2.2.1]hept-2-yl)-indazol-1-yl]-pyridin-2-yl}-(1-phenyl-ethyl)-amine] | > 5.30 | > 3.30
C[C@H](Nc1cc(-c2nc(N3C[C@@H]4C[C@H]3CN4)c3ccccc3n2)ccn1)c1ccccc1 [Example 49, {4-[4-((1S,4S)-2,5-Diaza-bicyclo[2.2.1]hept-2-yl)-quinazolin-2-yl]-pyridin-2-yl}-(S)-(1-phenyl-ethyl)-amine] | > 5.30 | > 3.30
C[C@H](Nc1cc(-c2cc(N3C[C@@H]4C[C@H]3CN4)c3ccccc3n2)ccn1)c1ccccc1 [Example 51, (S)-{4-[4-((1S,4S)-2,5-Diaza-bicyclo[2.2.1]hept-2-yl)-quinolin-2-yl]-pyridin-2-yl}-(1-phenyl-ethyl)-amine] |  | > 3.30
CC(C)N1C[C@@H]2C[C@H]1CN2c1cc(-c2ccnc(N[C@@H](C)c3ccccc3)c2)nc2ccccc12 [Example 52, (S)-{4-[4-(5-Isopropyl-(1S,4S)-2,5-diaza-bicyclo[2.2.1]hept-2-yl)-quinolin-2-yl]-pyridin-2-yl}-(1-phenyl-ethyl)-amine] | > 5.30 | > 3.30
Fc1ccccc1CNc1cc(-c2cc3nccn3c(N3C[C@@H]4C[C@H]3CN4)n2)ccn1 [Example 57, {4-[5-((1S,4S)-2,5-Diaza-bicyclo[2.2.1]hept-2-yl)-imidazo[1,2-c]pyrimidin-7-yl]-pyridin-2-yl}-(2-fluoro-benzyl)-amine] | > 5.30 | > 3.30
CCN1C[C@@H]2C[C@H]1CN2c1nc(-c2ccnc(N[C@@H](C)c3ccccc3)c2)nc2ccccc12 [Example 64, (S)-{4-[4-(5-Ethyl-(1S,4S)-2,5-diaza-bicyclo[2.2.1]hept-2-yl)-quinazolin-2-yl]-pyridin-2-yl}-(1-phenyl-ethyl)-amine] |  | > 3.30
CC(C)N1C[C@@H]2C[C@H]1CN2c1nc(-c2ccnc(N[C@@H](C)c3ccccc3)c2)nc2ccccc12 [Example 65, (S)-{4-[4-(5-Isopropyl-(1S,4S)-2,5-diaza-bicyclo[2.2.1]hept-2-yl)-quinazolin-2-yl]-pyridin-2-yl}-(1-phenyl-ethyl)-amine] | > 5.30 | 
CC(C)N1C[C@@H]2C[C@H]1CN2c1nccc(-c2ccnc(N[C@@H](C)c3ccccc3)c2)n1 [Example 66, (S)-{4-[2-(5-Isopropyl-(1S,4S)-2,5-diaza-bicyclo[2.2.1]hept-2-yl)-pyrimidin-4-yl]-pyridin-2-yl}-(1-phenyl-ethyl)-amine] | > 5.30 | 
c1ccc(CNc2cc(-n3nc(N4C[C@@H]5C[C@H]4CN5)c4ccccc43)ccn2)cc1 [Example 69] | > 5.30 | > 3.30

Source: patent US7582631B2, “Substituted heterocyclic compounds and methods of use” (Amgen Inc., priority 2004, dated 2009)
